Earlier results in patent US20210338713A1, “Reduction of Pulmonary Inflammation Using Therapeutic Gas Mixtures” (Brain Cancer Research Institute, priority 2020, published 2021).

Tests used:
ovine model of ARDS = settings: inhalation, P<0.05
[1] = system: pediatric patients with ARDS
RDS patients = settings: surviving patients, six months post-treatment, low-dose iNO
[2] = in combination with oxygen
[3] = in vivo

## [N]=O [nitric oxide]
Ovine model of ARDS
  arterial PO2: increase
Ovine model of ARDS; without altering cardiac output
  venous admixture (Qva/QT): decrease
Ovine model of ARDS; without any systemic hemodynamic effects
  pulmonary arterial pressure (PAP) and resistance: decrease
[1]; inhaled
  patients with improved oxygenation: 15 of 17
[1]; inhaled, without changing systemic arterial pressure or pulmonary capillary wedge pressure
  mean pulmonary artery pressure and intrapulmonary shunt: lowered
[1]; low-dose inhaled NO (3 to 10 ppm) for 1 to 24 days, 5 of 10 patients
  survival, patients with ARDS: 50%
[1]; low-dose inhaled NO (3 to 10 ppm) for 1 to 24 days, 7 of 7 patients
  survival, non-ARDS patients: 100%
RDS patients
  values for select pulmonary function tests versus placebo-treated patients: significantly better

## [Xe] [xenon]
[2]
  concentrations at which xenon exhibits anaesthetic effects: 10-70 vol. %
[3]
  toxic effects on main organs: does not induce significant toxic effects
